# Test results: patent US20040219508A1, “Screening, quantitation and identification of active ingredients in natural products” (Sloan-Kettering Institute for Cancer Research, priority 2002, published 2004)
# Legend:
# MKN-74 cells = test: Flow cytometry with MPM-2 labeling after nocodazole synchronisation; type: cell-based, human
# Source text: Activation of cyclin B1 associated cdc2 kinase by mitotic inhibitors including paclitaxel induces an increased accumulation of cells into the M phase of the cell cycle (12). Thus, a decrease in cyclin B1 associated kinase activity should prevent cells from entering M and results in an accumulation of cells in G2. It should also force cells in M to exit M and continue to cell cycle. Experiments were designed to test this in the MKN-74 cells by flow cytometry and labeling of cells with the MPM-2 antibody which identifies cells in mitosis. This is difficult to assess in asynchronous cells. So as to better document accumulation of cell in G2, experiments were designed to first synchronise the cells with nocodazole in the M phase (e.g. mitotic block).
# MKN-74 = test: MTT growth assay; type: cell-based, human; conditions: 10 μg/ml berberine
# Method: The cells were treated on day 0 with huanglian and then cell viability in the continued presence or absence (control) of drug was determined for the subsequent 5 days (days 1 to 5) by the MTT (3-(4,5-dimethythiazol-2-yl)-2-5-diphenyltetratrazolium bromide) assay. In this colorometric assay the absorbance of converted dye is measured at a wavelength (OD) of 550 nm and the increased absorbance is directly proportional to cell viability.
# Since berberine constitutes the major fraction of huanglian (25%), a 10 μg/ml solution of berberine was tested to determine the degree to which it inhibited proliferation of the MKN-74 cells.
# [1] = Metabolism by human liver S9 microsomes, HPLC/UV; type: in vitro ADME; conditions: extract 3 μ/ml, S9 1 mg/ml with NADPH
# Method: Since oral drugs are metabolised by a “first-pass” through the liver, we also elected to determine whether huanglian would be metabolised in vitro by human liver S9 microsomes (Gentest, MA). This assay creates metabolites of a drug that are equivalent to those formed on a “first-pass” through the liver. For these studies, the huanglian extract, at a final concentration of 3 μ/ml, was exposed to human liver S9 microsomes at 1 mg/ml with NADPH. The microsomal extracts obtained in this assay were then analyzed by HPLC and UV spectroscopy.
# [2] = human, in vivo
# Method: Pharmacokinetic studies (PK). Bloods for pharmacokinetic studies (PK) will be performed on days 1, 2, 8, 15 and 29 of treatment. Repeated bloods for PK will be drawn on day #1 only, before the daily dose (time=0), 1 hour after, and 2,4, 6, 8 and 24 hours after the first dose of huanglian. On all other days, a single PK blood sample will be drawn, to measure steady state levels of the drug. For these studies 10 ml of heparinized blood (green stopper vacutainer tube) will be collected. Plasma samples (PK) will be sent for pharmacokinetic measurements of huanglian peaks.
# Pharmacokinetic (PK) and surrogate marker studies: Since berberine represents approximately 50% of the herb, PK measurements were being conducted of berberine by HPLC. However, only very low levels of berberine (<50 ng/ml) have been detected in the plasma of any patient on the study. Also being tested is plasma collected from patients on day #15 of therapy to determine if the patient's own plasma will inhibit cancer cell growth of the gastric cancer cell line MKN-74 ex vivo, as determined by SRB assays. For these studies, the patient's plasma is concentrated and the MKN-74 cells are exposed to the patient's own plasma for either 2 (II) or 4 (IV) days before the tumor cells are assayed for growth inhibition. As shown for the patient treated in cohort 3 (see graph below), the patient's own pretreatment plasma (day 0) was capable of inhibiting MKN-74 cell growth, even though the patient had been off all chemotherapy for at least 4 weeks. Three separate samples were then drawn on day 15 of treatment at 8:30 AM, 9:30 AM, and 12:30 PM. […] The last lanes show the positive control of media “spiked” with huanglian (HL) at a concentration of 20 μg/ml and exposed to MKN-74 cells for both 2 and 4 days. This degree of growth suppression confirms the activity of the herb from the capsules.
# HepG2 hepatoma cells = conditions: continuous exposure, 1 to 50 μM; cited from earlier work
# [3] = dogs; cited from earlier work
# [4] = cited from earlier work
# [5] = cited from earlier work; remark: listed apart in the source
SMILES,cells remaining in M (MKN-74 cells; nocodazole for 12 hours (NOC12)) [%],"cells remaining in M (MKN-74 cells; nocodazole, then drug free medium 24 hours (NOC12→(−)24)) [%]",inhibition of cell proliferation (MKN-74),change of HPLC peaks after liver microsome treatment [1],Plasma B [2] [µg/mL],berberine in plasma by HPLC [2],berberine level in plasma [2] [ng/mL],tumor cell growth (HepG2 hepatoma cells),cardiovascular effects [3],facial flushing ([4]; 12 patients) [patients],transient nausea ([4]; 12 patients) [patients],"QTc interval ([4]; after berberine, returned to baseline after 24 hours)",hemodynamic effects ([4]; i.v. 0.2 mg/kg/min over 30 minutes),"ventricular tachycardia with torsades de pointes morphology, patients ([4]; within 1-20 hours of the infusion)",clinical effect at higher plasma concentration ([5]; berberine plasma concentrations >0.11 mg/L),"side effects ([5]; by mouth, 1.2 gm/d for two weeks, 56 patients)"
COC(=O)Nc1nc2ccc(C(=O)c3cccs3)cc2[nH]1 [nocodazole],41,16,–,–,–,–,–,–,–,–,–,–,–,–,–,–
COc1ccc2cc3[n+](cc2c1OC)CCc1cc2c(cc1-3)OCO2 [berberine],–,–,not able to inhibit cell proliferation to the same degree as either the huanglian or its metabolites,decreased only slightly,0 to 0.024,non-measurable by HPLC,< 50,inhibits tumor cell growth in a dose-dependent manner,positive inotropic effects and lower peripheral vascular resistance,2,2,consistently elevated in all 12 patients,decrease in pulmonary and systemic vascular resistance and an increase in cardiac index and ejection fraction,Four of 12,more significant increase in LVEF and decrease in the frequency and complexity of ventricular premature beats,no side effects or arrythmogenesis
